Consider three molecules from patent publication US5863550A, “Cholestasis ameliorant” (Tokyo Tanabe Company Limited, priority 1993, dated 1999).

The test system of series [1] is intrahepatic cholestasis. The following applies: cited from earlier work.
Series [2] in a line: Solubility in water. Format: physicochemical. The following applies: in words.
Series [3] in a line: Acute toxicity (LD50), intravenous, beagle dogs. The arrangement: species or system 8 to 11-month old beagle dogs. The following applies: dog, in vivo, both sexes. The protocol: (§1) The acute toxicity (LD50) of intravenously administered tauroursodeoxycholic acid was evaluated in 6-week old male and female CD rats and 8 to 11-month old male and female beagle dogs. The LD50 was 600 to 800 mg/kg in male rats and 800 to 1000 mg/kg in female rats.

Series [4] concerns patients with cholestasis. Kind of series: Clinical results of tauroursodeoxycholic acid injection (patients with cholestasis / jaundice). Format: in vivo, human (patients). The protocol: Since tylosis of the gallbladder walls was observed by abdominal ultrasonic imaging and there were severe icteric symptoms, this case was diagnosed as cholestasis due to drug-induced hepatopathy.
At a stage when moderate jaundice still remained (total bilirubin: 6.9 mg/dl) and no improvement had been noted in subjective symptoms such as skin itching and epigastric discomfort, tauroursodeoxycholic acid was intravenously injected once a day at a dose of 100 mg for 14 days. As a result, the total bilirubin level, GOT and GPT were decreased to 2.1 mg/dl, 45 U/l and 36 U/l, respectively, and the icteric symptoms as well as the subjective symptoms such as skin itching and epigastric discomfort were disappeared.
[…] After the patient came back to Japan on April 5 and was hospitalized, tauroursodeoxycholic acid was intravenously administered once a day at a dose of 100 mg for 14 days.
At a stage when moderate jaundice was observed (total bilirubin: 9.0 mg/dl, GOT: 838 U/l, GPT 451 U/l), tauroursodeoxycholic acid was administered once a day at a dose of 300 mg by intravenous drip infusion for 14 days.
This patient was diagnosed to suffer from cholestasis due to acute viral hepatitis based on results of immuno-serological test including GOT of 11600 U/l, GPT of 6300 U/l and total bilirubin level of 7.7 mg/dl and HBV positive result of virological test as well as severe icteric symptoms.
At a stage when jaundice was still severe (total bilirubin: 16.19 mg/dl), tauroursodeoxycholic acid was administered once a day at a dose of 300 mg by intravenous drip infusion for 14 days. As a result, the total bilirubin level, GOT and GPT were decreased to 4.4 mg/dl, 48 U/l and 36 U/l, respectively, icteric symptoms were improved from the day after one week of the administration and subjective symptoms such as skin itching and systemic malaise were disappeared by the 10th day of the administration.
This patient began to feel general malaise in late June 1993 and, since jaundice appeared on Jun. 28, they visited a neighboring clinic and received treatment. In spite of that, jaundice was not improved and they referred to our medical institution on July 5. Based on the results of inspections, the patient was diagnosed to suffer cholestasis due to acute viral hepatitis (type B).
Tauroursodeoxycholic acid was administered by intravenous injection once a day at a dose of 600 mg for 18 days from July 8.
This patient noticed jaundice in the middle of May 1993 and consulted a doctor. Their symptom was diagnosed as obstructive jaundice based on images of enlargement of the bilateral intrahepatic bile ducts and 3-4 cm long irregular stenosis in the choledoch observed in endoscopic retrograde cholangiopancreatography (ERCP) and underwent endoscopic […] bile duct drainage (ENBD) on May 31.
Because icteric symptoms were not improved, tauroursodeoxycholic acid was intravenously injected once a day at a dose of 100 mg for 22 days.
This patient was diagnosed to suffer from pancreatic cancer by ERCP. […] Concurrently, icteric symptoms and skin itching were continued. Therefore, tauroursodeoxycholic acid was intravenously injected once a day at a dose of 600 mg for 38 days. As a result, the total bilirubin level was decreased to 3.3 mg/dl, the bile flow was increased from the preadministration level of 230 ml/day to 440 ml/day, and icteric symptoms and skin itching were improved.

Series [5] is described as follows: Acute toxicity (LD50), intravenous, rats. Further details: species or system 6-week old CD rats. The following applies: rat, in vivo. As for the experimental part: as §1
Series [6] relates to hepatic injury induced by α-naphthylisothiocyanate (ANIT). Kind of series: Protective effect against hepatic injury in mice (ANIT). Format: in vivo, male ICR mice. As for the experimental part: Tauroursodeoxycholic acid was administered to male ICR mice via their caudal veins at a dose within a range of 100 to 1200μ mole/kg two hours before and two hours after an administration of α-naphthylisothiocyanate (ANIT) as a single dose of 80 mg/kg. Serum bilirubin concentration, total bile acid concentration and LDH activity were measured two days after the ANIT administration.

In series [7] the test system is bile flow reduction induced by estradiol-17β-D-glucuronide (E-17-G). Kind of series: Ameliorative effect against cholestasis in rats (E-17-G-induced reduction of bile flow). Format: in vivo, female SD rats. The protocol: An extra external-biliary fistula was developed in female SD rats under anesthesia and, after bile collection for 30 minutes, estradiol-17β-D-glucuronide (E-17-G) was administered via their femoral veins as a single dose of 10 μ mole/kg. Immediately after the administration, tauroursodeoxycholic acid was continuously administered over two hours via the femoral veins at a rate of 0.6 μ mole/min/100 g body weight, and the bile flow was measured serially.

The conditions of series [8]: in words, background; cited from earlier work.
Where [9] appears, read: Example 2 patient, 100 mg i.v. once a day for 14 days, from the day after three days of the administration.
Where [10] appears, read: Example 5 patient, 600 mg i.v. once a day for 18 days.
The mark [11] stands for this setting: Example 6 patient, obstructive jaundice, ENBD, 100 mg i.v. once a day for 22 days, after one week.
The mark [12] stands for this setting: 100 to 1200 μ mole/kg via caudal veins two hours before and two hours after ANIT 80 mg/kg, two days after ANIT.

Entries after “also recorded” stand apart in the source; their conditions may differ.

A word on the LD50: it is the dose expected to kill half of the subjects tested. Read a high LD50 as lower toxicity.

As to `CCC1(c2ccccc2)C(=O)NC(=O)NC1=O` [phenobarbital], in series [1] (steroid and phenobarbital preparations currently used), the “efficacy in the treatment of intrahepatic cholestasis” value is reported as “a certain level of, but often insufficient, efficacy”.
With `C[C@H](CCC(=O)NCCS(=O)(=O)O)[C@H]1CC[C@H]2[C@@H]3[C@@H](O)C[C@@H]4C[C@H](O)CC[C@]4(C)[C@H]3CC[C@]12C` [tauroursodeoxycholic acid], the solubility in water result in series [2] is listed as “better solubility in water as compared with ursodeoxycholic acid; also recorded: high solubility in water; also recorded: excellent solubility in water”. Moreover, the LD50 in series [3] fell in the range of 300 to 600 mg/kg; in series [5] (female rats), 800 to 1000 mg/kg; in series [5] (male rats), 600 to 800 mg/kg. In addition, the total bilirubin level was 2.1 mg/dL in series [4] (Example 1 patient, drug-induced hepatopathy, 100 mg i.v. once a day for 14 days, before: 6.9 mg/dl); 13.7 mg/dL in series [4] (Example 2 patient, acute viral hepatitis, 100 mg i.v. once a day for 14 days, before: 31.4 mg/dl); 2.8 mg/dL in series [4] (Example 3 patient, drug-induced hepatopathy, 300 mg once a day i.v. drip infusion for 14 days, before: 9.0 mg/dl); 4.4 mg/dL in series [4] (Example 4 patient, acute viral hepatitis (HBV positive), 300 mg once a day i.v. drip infusion for 14 days, before: 16.19 mg/dl); “reduced by half” in series [4] (Example 5 patient, acute viral hepatitis (type B), 600 mg i.v. once a day, after 4 days); “almost within the normal range” in series [4] (Example 5 patient, acute viral hepatitis (type B), 600 mg i.v. once a day, after one week). The total bilirubin level result in series [4] (setting [11]) is “decrease of the total bilirubin level”; in series [4] (Example 7 patient, pancreatic cancer, PTCD, 600 mg i.v. once a day for 38 days, before: around 15 mg/dl) it was 3.3 mg/dL. The GOT in series [4] (Example 1 patient, drug-induced hepatopathy, 100 mg i.v. once a day for 14 days, peak before: 548 U/l) turned out to be 45 U/l; in series [4] (Example 3 patient, 300 mg once a day i.v. drip infusion for 14 days, before: 838 U/l) it was 171 U/l; in series [4] (Example 4 patient, 300 mg once a day i.v. drip infusion for 14 days, at diagnosis: 11600 U/l) it was 48 U/l. Also, the GPT in series [4] (Example 1 patient, drug-induced hepatopathy, 100 mg i.v. once a day for 14 days, peak before: 664 U/l) came to 36 U/l; in series [4] (Example 3 patient, 300 mg once a day i.v. drip infusion for 14 days, before: 451 U/l) it was 145 U/l; in series [4] (Example 4 patient, 300 mg once a day i.v. drip infusion for 14 days, at diagnosis: 6300 U/l), 36 U/l. In series [4] (Example 1 patient, 100 mg i.v. once a day for 14 days), the “icteric symptoms and subjective symptoms such as skin itching and epigastric discomfort” value was “disappeared”. The “total bile acid level” value in series [4] (Example 2 patient, acute viral hepatitis, 100 mg i.v. once a day for 14 days, before: 21 μmole/l) is 12 µmol/L. Further, the icteric symptoms result is recorded as “improvement of icteric symptoms” in series [4] (setting [9]) and “improved” in series [4] (Example 4 patient, 300 mg once a day i.v. drip infusion, from the day after one week of the administration). In addition, in series [4] (setting [9]), the “subjective symptoms such as skin itching and anorexia” value is “disappeared”. Besides, the “icteric symptoms due to cholestasis” value in series [4] (Example 3 patient, 300 mg once a day i.v. drip infusion for 14 days) is given as “improvement in icteric symptoms”. Also, the “total bilirubin level, GOT and GPT after completion of administration” value in series [4] (Example 3 patient, two weeks after the completion of 300 mg once a day i.v. drip infusion for 14 days) was “no increase was observed”. Moreover, the “subjective symptoms such as skin itching and systemic malaise” value in series [4] (Example 4 patient, 300 mg once a day i.v. drip infusion, by the 10th day of the administration) is “disappeared”. In addition, the “icteric symptoms and general malaise” value in series [4] (setting [10]) is “disappeared”. In addition, the “other parameters related to the liver function” value in series [4] (setting [10]) is “improved”. Moreover, the “jaundice and skin itching” value in series [4] (Example 6 patient, obstructive jaundice, ENBD, 100 mg i.v. once a day for 22 days) was “improvement of jaundice and skin itching”. For the same molecule, the bile flow result in series [4] (setting [11]) was “apparent increase of bile flow”; in series [4] (Example 7 patient, pancreatic cancer, PTCD, 600 mg i.v. once a day for 38 days, preadministration 230 ml/day), 440 mL/day. Also, the “icteric symptoms and skin itching” value in series [4] (Example 7 patient, pancreatic cancer, PTCD, 600 mg i.v. once a day for 38 days) is “improved”. The “ameliorative effect against cholestasis” value in series [4] (general finding, patients with liver diseases) was “ameliorative effect against cholestasis”. Moreover, in series [6] (setting [12]), the “increase of LDH activity induced by ANIT” value is “inhibited”. Further, the “increase of serum bilirubin concentration induced by ANIT” value in series [6] (setting [12]) is “inhibited”. Besides, the “increase of total bile acid concentration induced by ANIT” value in series [6] (setting [12]) is given as “inhibited”. In series [6] (general conclusion), the “protective effect of hepatocyte” value is given as “protective effect of hepatocyte”. The “infusion rate at or above which the reduction of the bile flow induced by E-17-G was inhibited” value in series [7] (female SD rats, E-17-G 10 μ mole/kg i.v., continuous infusion over two hours via femoral veins) is recorded as ≥ 0.3 μ mole/min/100 g body weight. Further, the “inhibition of the reduction of bile flow compared with free ursodeoxycholic acid” value in series [7] (female SD rats, E-17-G 10 μ mole/kg i.v., comparator free ursodeoxycholic acid) is “more marked than that of free ursodeoxycholic acid”. Moreover, the cholagogue effect result in series [7] (general conclusion) is recorded as “exerts cholagogue effect”.
`C[C@H](CCC(=O)O)[C@H]1CC[C@H]2[C@@H]3[C@@H](O)C[C@@H]4C[C@H](O)CC[C@]4(C)[C@H]3CC[C@]12C` [ursodeoxycholic acid]: in series [1] (ursodeoxycholic acid preparations, recently reported in Japan and other countries), the “efficacy against intrahepatic cholestasis” value is “very high efficacy”. Moreover, the solubility entry in series [8] was “very low”.
